Results on one molecule are retold here after article PMC6704710, “Preclinical evaluation of 3D185, a novel potent inhibitor of FGFR1/2/3 and CSF-1R, in FGFR-dependent and macrophage-dominant cancer models” (Journal of Experimental & Clinical Cancer Research : CR, 2019).

Holding throughout (test): Eurofins kinase panel
Assay type in all cases: biochemical
What all share (conditions): read-out: Inhibition rate (%)

The target of assay [1] is T1, DAPK2(h) (Homo sapiens, UniProt Q9UIK4).
T1 construct: purchased Eurofins (KinaseProfiler)

In assay [2] the target is T2, HIPK2(h) (Homo sapiens, UniProt Q9H2X6).
T2 construct: purchased Eurofins (KinaseProfiler)

The target of assay [3] is T3, Met(D1246N)(h) (Homo sapiens, UniProt P08581, D1228N).
T3 construct: purchased Eurofins (KinaseProfiler)

Assay [4] deals with T4, Met(M1268T)(h) (Homo sapiens, UniProt P08581, M1250T).
T4 construct: purchased Eurofins (KinaseProfiler)

Assay [5] has as its target T5, PRKG2(h) (Homo sapiens, UniProt Q13237).
T5 construct: purchased Eurofins (KinaseProfiler)
T5 sequence (Q13237 1-762): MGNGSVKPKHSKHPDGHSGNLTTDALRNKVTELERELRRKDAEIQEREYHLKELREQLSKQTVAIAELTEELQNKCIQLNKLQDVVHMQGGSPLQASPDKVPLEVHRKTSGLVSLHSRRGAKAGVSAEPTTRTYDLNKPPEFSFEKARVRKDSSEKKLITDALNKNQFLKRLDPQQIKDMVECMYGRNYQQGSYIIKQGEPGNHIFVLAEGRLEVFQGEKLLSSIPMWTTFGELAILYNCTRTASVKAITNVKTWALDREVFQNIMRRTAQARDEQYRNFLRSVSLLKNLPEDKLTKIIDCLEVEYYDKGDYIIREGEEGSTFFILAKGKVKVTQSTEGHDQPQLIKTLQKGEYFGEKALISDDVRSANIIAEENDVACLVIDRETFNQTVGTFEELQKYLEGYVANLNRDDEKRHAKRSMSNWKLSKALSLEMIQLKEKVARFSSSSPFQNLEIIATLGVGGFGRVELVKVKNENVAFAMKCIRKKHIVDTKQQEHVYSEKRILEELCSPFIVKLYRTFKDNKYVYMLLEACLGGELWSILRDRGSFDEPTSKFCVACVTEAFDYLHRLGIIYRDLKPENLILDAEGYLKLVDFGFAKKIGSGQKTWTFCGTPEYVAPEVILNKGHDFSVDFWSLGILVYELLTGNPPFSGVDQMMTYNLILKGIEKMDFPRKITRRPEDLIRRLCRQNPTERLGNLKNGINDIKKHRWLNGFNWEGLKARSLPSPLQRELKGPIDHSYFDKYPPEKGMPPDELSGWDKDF

For assay [6], the target named is T6, SIK3(h) (Homo sapiens, UniProt Q9Y2K2).
T6 construct: purchased Eurofins (KinaseProfiler)

Assay [7] has as its target T7, TBK1(h) (Homo sapiens, UniProt Q9UHD2).
T7 construct: purchased Eurofins (KinaseProfiler)
T7 sequence (Q9UHD2 1-729): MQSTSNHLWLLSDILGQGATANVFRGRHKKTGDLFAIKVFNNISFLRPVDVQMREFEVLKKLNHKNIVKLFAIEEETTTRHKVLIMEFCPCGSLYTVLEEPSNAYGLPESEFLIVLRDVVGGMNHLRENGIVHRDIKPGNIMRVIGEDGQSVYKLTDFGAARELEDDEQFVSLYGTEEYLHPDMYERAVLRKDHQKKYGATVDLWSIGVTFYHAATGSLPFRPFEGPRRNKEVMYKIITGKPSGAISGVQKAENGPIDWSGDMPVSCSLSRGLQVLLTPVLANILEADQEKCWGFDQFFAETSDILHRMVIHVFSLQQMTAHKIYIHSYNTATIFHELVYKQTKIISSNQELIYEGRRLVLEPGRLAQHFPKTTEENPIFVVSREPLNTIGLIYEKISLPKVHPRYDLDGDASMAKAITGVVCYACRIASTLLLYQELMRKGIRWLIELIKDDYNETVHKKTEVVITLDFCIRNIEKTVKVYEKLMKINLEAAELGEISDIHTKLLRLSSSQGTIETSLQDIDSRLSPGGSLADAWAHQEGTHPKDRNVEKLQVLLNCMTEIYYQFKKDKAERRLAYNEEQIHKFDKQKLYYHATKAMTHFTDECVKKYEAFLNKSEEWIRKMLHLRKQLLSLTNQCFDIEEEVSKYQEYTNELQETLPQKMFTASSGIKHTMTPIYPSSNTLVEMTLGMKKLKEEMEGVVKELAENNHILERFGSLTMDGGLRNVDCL

T2 sequence (Q9H2X6 whole entry): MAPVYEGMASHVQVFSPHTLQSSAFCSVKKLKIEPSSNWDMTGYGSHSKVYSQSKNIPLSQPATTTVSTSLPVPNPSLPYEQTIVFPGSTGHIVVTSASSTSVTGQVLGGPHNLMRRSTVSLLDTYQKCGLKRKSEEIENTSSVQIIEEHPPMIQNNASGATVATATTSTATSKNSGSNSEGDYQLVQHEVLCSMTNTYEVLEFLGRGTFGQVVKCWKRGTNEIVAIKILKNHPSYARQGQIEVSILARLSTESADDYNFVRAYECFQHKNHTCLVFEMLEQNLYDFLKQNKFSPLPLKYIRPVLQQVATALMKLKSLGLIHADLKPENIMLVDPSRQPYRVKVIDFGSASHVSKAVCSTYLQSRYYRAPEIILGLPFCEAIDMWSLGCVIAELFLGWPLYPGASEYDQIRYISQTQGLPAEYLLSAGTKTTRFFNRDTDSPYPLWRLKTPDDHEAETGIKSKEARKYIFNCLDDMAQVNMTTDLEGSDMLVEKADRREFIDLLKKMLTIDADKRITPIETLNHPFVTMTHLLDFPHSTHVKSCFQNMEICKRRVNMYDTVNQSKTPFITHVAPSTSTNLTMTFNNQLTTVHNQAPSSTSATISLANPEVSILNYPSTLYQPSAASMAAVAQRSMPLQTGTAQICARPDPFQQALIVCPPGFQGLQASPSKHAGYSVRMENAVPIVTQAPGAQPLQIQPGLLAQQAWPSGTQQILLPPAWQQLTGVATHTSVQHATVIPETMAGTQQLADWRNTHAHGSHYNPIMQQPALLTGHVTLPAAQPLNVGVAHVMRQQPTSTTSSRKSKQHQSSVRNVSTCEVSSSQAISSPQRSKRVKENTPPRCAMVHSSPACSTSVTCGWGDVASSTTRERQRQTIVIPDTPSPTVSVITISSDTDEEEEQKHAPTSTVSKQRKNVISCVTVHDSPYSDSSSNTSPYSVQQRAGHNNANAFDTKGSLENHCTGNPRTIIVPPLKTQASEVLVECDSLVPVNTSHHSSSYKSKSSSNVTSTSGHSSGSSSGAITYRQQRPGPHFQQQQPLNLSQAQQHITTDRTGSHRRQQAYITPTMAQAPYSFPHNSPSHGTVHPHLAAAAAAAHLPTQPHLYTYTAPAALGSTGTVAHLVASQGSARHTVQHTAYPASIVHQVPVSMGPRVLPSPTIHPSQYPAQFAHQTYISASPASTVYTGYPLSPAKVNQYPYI
T1 sequence (Q9UIK4 whole entry): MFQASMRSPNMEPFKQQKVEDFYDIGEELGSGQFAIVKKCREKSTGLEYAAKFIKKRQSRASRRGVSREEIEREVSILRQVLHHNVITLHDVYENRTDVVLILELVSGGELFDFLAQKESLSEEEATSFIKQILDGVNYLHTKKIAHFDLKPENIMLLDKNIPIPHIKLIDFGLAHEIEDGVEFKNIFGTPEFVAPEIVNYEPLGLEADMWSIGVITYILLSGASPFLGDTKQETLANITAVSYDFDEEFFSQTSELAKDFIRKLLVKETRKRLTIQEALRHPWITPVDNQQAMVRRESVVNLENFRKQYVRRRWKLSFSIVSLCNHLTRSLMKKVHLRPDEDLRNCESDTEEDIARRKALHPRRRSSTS
T3 sequence (P08581 956-1390 D1228N limits assumed): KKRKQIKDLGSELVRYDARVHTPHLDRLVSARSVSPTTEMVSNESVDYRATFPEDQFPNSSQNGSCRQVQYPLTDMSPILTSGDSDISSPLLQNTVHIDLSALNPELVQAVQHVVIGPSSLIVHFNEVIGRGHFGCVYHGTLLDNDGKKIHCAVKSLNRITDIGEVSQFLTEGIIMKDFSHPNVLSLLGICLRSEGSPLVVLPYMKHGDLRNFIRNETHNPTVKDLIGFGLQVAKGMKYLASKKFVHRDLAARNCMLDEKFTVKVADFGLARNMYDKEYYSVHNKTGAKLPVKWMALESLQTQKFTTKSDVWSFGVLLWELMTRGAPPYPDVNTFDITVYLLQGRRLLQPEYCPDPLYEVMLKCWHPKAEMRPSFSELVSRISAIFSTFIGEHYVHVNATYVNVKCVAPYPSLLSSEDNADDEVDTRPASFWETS
T4 sequence (P08581 956-1390 M1250T limits assumed): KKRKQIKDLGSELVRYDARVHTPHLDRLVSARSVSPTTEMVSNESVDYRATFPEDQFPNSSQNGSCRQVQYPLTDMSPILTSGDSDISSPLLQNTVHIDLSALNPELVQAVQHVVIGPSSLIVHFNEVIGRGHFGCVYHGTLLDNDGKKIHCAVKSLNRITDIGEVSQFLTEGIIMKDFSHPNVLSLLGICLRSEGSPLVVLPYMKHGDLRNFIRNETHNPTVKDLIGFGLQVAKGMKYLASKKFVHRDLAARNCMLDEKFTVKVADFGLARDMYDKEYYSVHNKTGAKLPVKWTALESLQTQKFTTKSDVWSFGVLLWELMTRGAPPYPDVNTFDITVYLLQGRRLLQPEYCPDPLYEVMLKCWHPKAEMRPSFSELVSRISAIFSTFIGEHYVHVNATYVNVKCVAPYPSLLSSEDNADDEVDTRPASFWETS
T6 sequence (Q9Y2K2 whole entry): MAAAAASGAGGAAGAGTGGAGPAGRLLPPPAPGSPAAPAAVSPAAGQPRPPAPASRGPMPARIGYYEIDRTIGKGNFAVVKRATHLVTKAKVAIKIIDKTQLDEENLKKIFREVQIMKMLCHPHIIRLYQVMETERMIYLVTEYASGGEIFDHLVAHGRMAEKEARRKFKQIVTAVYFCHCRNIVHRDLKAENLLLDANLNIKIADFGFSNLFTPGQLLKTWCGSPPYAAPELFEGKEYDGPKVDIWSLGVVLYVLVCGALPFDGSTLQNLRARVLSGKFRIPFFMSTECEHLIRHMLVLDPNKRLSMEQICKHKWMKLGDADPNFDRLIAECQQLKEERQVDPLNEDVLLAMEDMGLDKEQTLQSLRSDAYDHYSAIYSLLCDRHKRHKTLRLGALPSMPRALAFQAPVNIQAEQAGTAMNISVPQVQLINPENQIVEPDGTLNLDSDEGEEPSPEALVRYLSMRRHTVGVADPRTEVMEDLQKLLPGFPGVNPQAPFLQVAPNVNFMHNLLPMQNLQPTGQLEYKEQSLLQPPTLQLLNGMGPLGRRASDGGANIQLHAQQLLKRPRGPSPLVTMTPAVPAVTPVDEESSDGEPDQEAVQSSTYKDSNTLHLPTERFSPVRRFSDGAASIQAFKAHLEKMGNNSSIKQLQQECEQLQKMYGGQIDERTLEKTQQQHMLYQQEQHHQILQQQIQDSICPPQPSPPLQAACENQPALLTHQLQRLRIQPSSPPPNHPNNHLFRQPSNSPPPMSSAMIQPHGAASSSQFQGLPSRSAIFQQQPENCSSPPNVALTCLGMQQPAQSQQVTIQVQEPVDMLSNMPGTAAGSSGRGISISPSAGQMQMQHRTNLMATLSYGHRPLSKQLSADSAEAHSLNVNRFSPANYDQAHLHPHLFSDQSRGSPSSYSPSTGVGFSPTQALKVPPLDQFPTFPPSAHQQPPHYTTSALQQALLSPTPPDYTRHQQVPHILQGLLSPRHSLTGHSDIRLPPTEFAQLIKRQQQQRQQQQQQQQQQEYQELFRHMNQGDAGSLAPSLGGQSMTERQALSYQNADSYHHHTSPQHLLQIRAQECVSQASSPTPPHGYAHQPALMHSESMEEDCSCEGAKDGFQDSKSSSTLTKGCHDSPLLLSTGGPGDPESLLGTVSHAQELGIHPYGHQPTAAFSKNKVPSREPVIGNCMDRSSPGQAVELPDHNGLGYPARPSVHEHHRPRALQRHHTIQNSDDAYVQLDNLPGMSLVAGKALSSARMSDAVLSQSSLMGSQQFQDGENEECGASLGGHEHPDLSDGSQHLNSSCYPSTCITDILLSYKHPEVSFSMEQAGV

Usually inhibition stands for the drop in the measured response relative to a control, in per cent. Take `COc1cc(OC)c(Cl)c(-c2ccc3c(NC(=O)c4ccc(N5CCNC(C)(C)C5)cc4)n[nH]c3n2)c1Cl` [3D185]: the inhibition at 0.01 µM in assay [1] (10 nM) is 1%; in assay [2] (10 nM), 3%; in assay [3] (10 nM), -18%; in assay [4] (10 nM) it was -12%; in assay [5] (10 nM), 1%; in assay [6] (10 nM), -4%. Moreover, in assay [7] (10 nM), the inhibition at 0.01 µM was -6%. The inhibition at 0.1 µM was -8% in assay [1] (100 nM); 6% in assay [2] (100 nM); -11% in assay [3] (100 nM); -11% in assay [4] (100 nM); 3% in assay [5] (100 nM); -1% in assay [6] (100 nM). Besides, the inhibition at 0.1 µM in assay [7] (100 nM) is -2%. Besides, the inhibition at 1 µM was 2% in assay [1] (1000 nM); -10% in assay [2] (1000 nM); 3% in assay [3] (1000 nM); 15% in assay [4] (1000 nM); 3% in assay [5] (1000 nM); -2% in assay [6] (1000 nM). In assay [7] (1000 nM), the inhibition at 1 µM was -1%.
